Measurements published in PubChem BioAssay (NCI).
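Tested at 5 concentrations; 48 h exposure; 96-well plates; endpoints linearly interpolated, else capped at highest concentration. GI50: concentration for 50% inhibition of growth. TGI is the concentration that stops growth completely.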

Experiments:
Test in all cases: inhibition of tumour cell growth, NCI panel, 48 h
[1] = system: U251 CNS
[2] = system: UO-31 renal
[3] = system: K-562 leukemia
[4] = system: OVCAR-5 ovarian
[5] = system: MOLT-4 leukemia
[6] = system: HT29 colon
[7] = system: HCT-116 colon
[8] = system: NCI-H226 lung
[9] = system: T-47D breast
[10] = system: CAKI-1 renal
[11] = system: SF-295 CNS
[12] = system: MALME-3M melanoma
[13] = system: MDA-MB-435
[14] = system: SF-539 CNS
[15] = system: IGROV1 ovarian
[16] = system: HCT-15 colon
[17] = system: OVCAR-4 ovarian
[18] = system: RXF 393 renal
[19] = system: UACC-257 melanoma
[20] = system: BT-549 breast
[21] = system: MDA-MB-231 breast
[22] = system: EKVX NSCLC
[23] = system: SK-MEL-5 melanoma
[24] = system: COLO 205 colon
[25] = system: A498 renal
[26] = system: SK-MEL-28 melanoma
[27] = system: DU-145 prostate
[28] = system: RPMI-8226 leukemia
[29] = system: SNB-19 CNS
[30] = system: OVCAR-8 ovarian
[31] = system: SF-268 CNS
[32] = system: HS 578T breast
[33] = system: 786-0 renal
[34] = system: CCRF-CEM leukemia
[35] = system: SNB-75 CNS
[36] = system: SW-620 colon
[37] = system: NCI-H23 lung
[38] = system: SN12C renal
[39] = system: HOP-62 NSCLC
[40] = system: PC-3 prostate
[41] = system: NCI/ADR-RES ovarian
[42] = system: LOX IMVI melanoma
[43] = system: NCI-H460 lung
[44] = system: OVCAR-3 ovarian
[45] = system: HOP-92 NSCLC
[46] = system: SK-OV-3 ovarian
[47] = system: HCC-2998 colon
[48] = system: MCF7 breast
[49] = system: ACHN renal
[50] = system: KM12 colon
[51] = system: UACC-62 melanoma
[52] = system: M14 melanoma
[53] = system: TK-10 renal

**Q.** Which results are given for `c1ccc(C2=NOC3(c4ccccc4)CC(c4cccs4)Sc4ccccc4N23)cc1` (stereo not given)?
**A.** GI50 [1]: 7.58 µM; GI50 [2]: 89.1 µM; GI50 [3]: 23.6 µM; GI50 [4]: 35.1 µM; GI50 [5]: 8.75 µM; GI50 [6]: 65.5 µM; GI50 [7]: 28.2 µM

**Q.** What does the source list for `O=P([O-])(O)OP(=O)([O-])O.[NH-][C@H]1CCCC[C@@H]1[NH-].[OH-].[OH-].[Pt+4]`?
**A.** GI50 [8]: 23.2 µM; TGI [8]: 55 µM; GI50 [9]: 25 µM; TGI [9]: 61.4 µM; GI50 [10]: 34.4 µM; TGI [10]: > 100 µM; GI50 [1]: 17.2 µM; TGI [1]: 33.8 µM; GI50 [11]: 19.8 µM; TGI [11]: 44.1 µM; GI50 [12]: 14.3 µM; TGI [12]: 38.2 µM; GI50 [13]: 31.2 µM; TGI [13]: > 100 µM; GI50 [14]: 22.3 µM; TGI [14]: 57.6 µM; GI50 [2]: 19.1 µM; TGI [2]: 44 µM; GI50 [15]: 21.8 µM; TGI [15]: 60.4 µM; GI50 [16]: 39.9 µM; TGI [16]: > 100 µM; GI50 [3]: 92.9 µM; TGI [3]: > 100 µM; GI50 [17]: 71.2 µM; TGI [17]: > 100 µM; GI50 [18]: 17.6 µM; TGI [18]: 36.1 µM; GI50 [19]: 37 µM; TGI [19]: > 100 µM; GI50 [20]: 24.3 µM; TGI [20]: 47.9 µM; GI50 [21]: 25 µM; TGI [21]: 57.2 µM; GI50 [22]: 25.3 µM; TGI [22]: 68.3 µM; GI50 [23]: 42.3 µM; TGI [23]: > 100 µM; GI50 [24]: 88.2 µM; TGI [24]: > 100 µM; GI50 [25]: 21.1 µM; TGI [25]: 39.9 µM; GI50 [26]: 31.5 µM; TGI [26]: > 100 µM; GI50 [4]: 26.3 µM; TGI [4]: 63.2 µM; GI50 [27]: 33.3 µM; TGI [27]: > 100 µM; GI50 [28]: > 100 µM; TGI [28]: > 100 µM; GI50 [29]: 21.7 µM; TGI [29]: 49.7 µM; GI50 [30]: 22.7 µM; TGI [30]: 63.6 µM; GI50 [5]: > 100 µM; TGI [5]: > 100 µM; GI50 [31]: 20.9 µM; TGI [31]: 46.8 µM; GI50 [32]: 36.1 µM; TGI [32]: 93.1 µM; GI50 [33]: 29.5 µM; TGI [33]: 76.2 µM; GI50 [6]: 59.6 µM; TGI [6]: > 100 µM; GI50 [34]: > 100 µM; TGI [34]: > 100 µM; GI50 [35]: 20.4 µM; TGI [35]: 41 µM; GI50 [36]: 55.8 µM; TGI [36]: > 100 µM; GI50 [37]: 20.8 µM; TGI [37]: 46.1 µM; GI50 [38]: 29.2 µM; TGI [38]: 87.9 µM; GI50 [39]: 19.3 µM; TGI [39]: 35.4 µM; GI50 [7]: 37.1 µM; TGI [7]: > 100 µM; GI50 [40]: 25.2 µM; TGI [40]: 68.2 µM; GI50 [41]: 22.7 µM; TGI [41]: 78.1 µM; GI50 [42]: 33.2 µM; TGI [42]: > 100 µM; GI50 [43]: 34.5 µM; TGI [43]: > 100 µM; GI50 [44]: 21 µM; TGI [44]: 39 µM; GI50 [45]: 22 µM; TGI [45]: 60.1 µM; GI50 [46]: 19.9 µM; TGI [46]: 38.6 µM; GI50 [47]: 28.8 µM; TGI [47]: 85.2 µM; GI50 [48]: 32.1 µM; TGI [48]: > 100 µM; GI50 [49]: 16.6 µM; TGI [49]: 42.1 µM; GI50 [50]: > 100 µM; TGI [50]: > 100 µM; GI50 [51]: 22 µM; TGI [51]: 92.2 µM; GI50 [52]: 40.3 µM; TGI [52]: > 100 µM

**Q.** For `CNCc1cccc2c1OCCOCCN(C)C(=O)CN(C)S(=O)(=O)c1ccc(cc1)-c1cnc(N)c(n1)C(=O)N2`, which GI50 [10] is on record?
**A.** 2.35 µM

**Q.** And the TGI [10]?
**A.** > 100 µM

**Q.** And the GI50 [11]?
**A.** 1.77 µM

**Q.** And the TGI [11]?
**A.** > 100 µM

**Q.** And the GI50 [2]?
**A.** > 100 µM

**Q.** And the TGI [2]?
**A.** > 100 µM

**Q.** And the GI50 [16]?
**A.** 6.97 µM

**Q.** And the TGI [16]?
**A.** > 100 µM

**Q.** And the GI50 [53]?
**A.** 2710 nM

**Q.** And the TGI [53]?
**A.** > 100 µM

**Q.** What about the GI50 [23] of the same compound?
**A.** 6.63 µM

**Q.** What about the TGI [23] of the same compound?
**A.** > 100 µM

**Q.** And the GI50 [25]?
**A.** 1.82 µM

**Q.** What about the TGI [25] of the same compound?
**A.** 7.34 µM

**Q.** And the GI50 [33]?
**A.** 0.669 µM

**Q.** What about the TGI [33] of the same compound?
**A.** 2.09 µM

**Q.** What about the GI50 [6] of the same compound?
**A.** 2.85 µM

**Q.** And the TGI [6]?
**A.** > 100 µM

**Q.** And the GI50 [37]?
**A.** 0.299 µM

**Q.** And the TGI [37]?
**A.** 3.47 µM

**Q.** What about the GI50 [41] of the same compound?
**A.** > 100 µM

**Q.** What about the TGI [41] of the same compound?
**A.** > 100 µM

**Q.** What about the GI50 [48] of the same compound?
**A.** 0.0853 µM

**Q.** And the TGI [48]?
**A.** > 100 µM
